Laboratory results published in US20240218022A1, “ANTI-VISTA MACROCYCLIC PEPTIDES AND COMPOSITIONS” (BRISTOL-MYERS SQUIBB COMPANY, priority 2022, published 2024).
Where two headings read alike, the source gives them in different places. Positions of bridges follow the written chain, without caps; N, C: chain ends. Non-standard residues stand in square brackets, D forms with d. Residues, ends and D or L forms follow the SMILES beside them. N(3-phenylpropyl)Gly = O=C(O)CNCCCc1ccccc1; Cit = NC(=O)NCCC[C@H](N)C(=O)O; Ahp(2) = CCCCC[C@H](N)C(=O)O; NMeNle = CCCC[C@H](NC)C(=O)O; Tle = CC(C)(C)[C@H](N)C(=O)O; NHexGly = CCCCCCNCC(=O)O; Nle = CCCC[C@H](N)C(=O)O; Orn = NCCC[C@H](N)C(=O)O

Biological target: T1, mouse VISTA (mVISTA) (Mus musculus, UniProt Q9D659)
T1 construct: expressed in transfected cells; host or cells: Human embryonic kidney 293T cells
T1 sequence (Q9D659 33-308): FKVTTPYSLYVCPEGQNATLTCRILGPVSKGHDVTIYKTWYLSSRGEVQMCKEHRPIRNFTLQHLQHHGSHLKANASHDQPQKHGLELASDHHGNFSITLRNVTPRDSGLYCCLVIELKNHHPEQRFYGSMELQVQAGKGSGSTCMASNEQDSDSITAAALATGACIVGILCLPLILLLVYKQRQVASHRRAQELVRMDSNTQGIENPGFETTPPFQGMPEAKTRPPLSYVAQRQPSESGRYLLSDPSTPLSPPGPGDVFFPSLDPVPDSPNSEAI
Test: Cell-Based Binding High-Content Assay For mVISTA (HC CBA mVISTA)
Settings: 293T cells expressing mouse VISTA, competition with biotinylated peptide (2 nM)
Summary of the method: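 Competition of compound with a biotinylated peptide (final 2 nM, 30 min at RT) for binding to mVISTA on 293T cells, run under no-wash or wash (1 h compound preincubation then removal) formats. Readout by Alexa 647–streptavidin imaging on a high-content platform; four-parameter logistic fit gave IC50.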

Row | Compound | IC50 (read-out: CBA mVISTA IC50) | IC50 (read-out: HC CBA mVISTA IC50)
1 | CCCCCCN1CC(=O)N[C@@H](Cc2ccc(O)cc2)C(=O)N[C@@H](CCCCC)C(=O)N[C@@H](CC(=O)O)C(=O)N[C@@H](CCCNC(=N)N)C(=O)N(C)[C@@H](CCCC)C(=O)N[C@@H](CCCCC)C(=O)N2CCC[C@H]2C(=O)N[C@@H](C(C)C)C(=O)N[C@@H](CC(=O)O)C(=O)N[C@H](C(=O)N[C@H](CC(=O)O)C(N)=O)CSCC(=O)N[C@@H](Cc2ccccc2)C(=O)N[C@@H](Cc2ccc(O)cc2)C(=O)N[C@@H](CC(=O)O)C1=O [Example 1076] ({CH2CO}-FYD[NHexGly]Y[Ahp(2)]DR[NMeNle][Ahp(2)]PVDC[dD]-NH2; thioether N-14) | 21.5 nM | 
2 | CCCCCCN1CC(=O)N[C@@H](Cc2ccc(O)cc2)C(=O)N[C@@H](CCCCC)C(=O)N[C@@H](CC(=O)O)C(=O)N[C@@H](CCCNC(=N)N)C(=O)N(C)[C@@H](CCCC)C(=O)N[C@@H](CCCCC)C(=O)N2CCC[C@H]2C(=O)N[C@@H](C(C)C)C(=O)N[C@@H](CC(=O)O)C(=O)N[C@H](C(=O)N[C@@H](CCC(=O)O)C(N)=O)CSCC(=O)N[C@@H](Cc2ccccc2)C(=O)N[C@@H](Cc2ccc(O)cc2)C(=O)N[C@@H](CC(=O)O)C1=O [Example 1077] ({CH2CO}-FYD[NHexGly]Y[Ahp(2)]DR[NMeNle][Ahp(2)]PVDCE-NH2; thioether N-14) | 14.7 nM | 
3 | CCCCCCN1CC(=O)N[C@@H](Cc2ccc(O)cc2)C(=O)N[C@@H](CCCC)C(=O)N[C@@H](CC(=O)O)C(=O)N[C@@H](CCCNC(=N)N)C(=O)N(C)[C@@H](CCCC)C(=O)N[C@@H](CCCCC)C(=O)N2CCC[C@H]2C(=O)N[C@@H](C(C)C)C(=O)N[C@@H](CC(=O)O)C(=O)N[C@H](C(=O)N[C@@H](CCC(=O)O)C(N)=O)CSCC(=O)N[C@@H](Cc2ccccc2)C(=O)N[C@@H](Cc2ccc(O)cc2)C(=O)N[C@@H](CC(=O)O)C1=O [Example 1078] ({CH2CO}-FYD[NHexGly]Y[Nle]DR[NMeNle][Ahp(2)]PVDCE-NH2; thioether N-14) | 17.7 nM | 
4 | CCCCCCN1CC(=O)N[C@@H](Cc2ccc(O)cc2)C(=O)N[C@@H](CCCCC)C(=O)NCC(=O)N[C@@H](CCCNC(=N)N)C(=O)N(C)[C@@H](CCCC)C(=O)N[C@@H](CCCCC)C(=O)N2CCC[C@H]2C(=O)N[C@@H](C(C)C)C(=O)N[C@@H](CO)C(=O)N[C@H](C(=O)NCC(N)=O)CSCC(=O)N[C@@H](Cc2ccccc2)C(=O)N[C@@H](Cc2ccc(O)cc2)C(=O)N[C@@H](CC(=O)O)C1=O [Example 1079] ({CH2CO}-FYD[NHexGly]Y[Ahp(2)]GR[NMeNle][Ahp(2)]PVSCG-NH2; thioether N-14) | 24.6 nM | 
5 | CCCCCCN1CC(=O)N[C@@H](Cc2ccc(O)cc2)C(=O)N[C@@H](CC(C)C)C(=O)NCC(=O)N[C@@H](CCCNC(=N)N)C(=O)N(C)[C@@H](CCCC)C(=O)N[C@@H](CCCCC)C(=O)N2CCC[C@H]2C(=O)N[C@@H](C(C)C)C(=O)N[C@@H](CO)C(=O)N[C@H](C(=O)NCC(=O)O)CSCC(=O)N[C@@H](Cc2ccccc2)C(=O)N[C@@H](Cc2ccc(O)cc2)C(=O)N[C@@H](CC(=O)O)C1=O [Example 1080] ({CH2CO}-FYD[NHexGly]YLGR[NMeNle][Ahp(2)]PVSCG-OH; thioether N-14) | 18.6 nM | 
6 | CCCCCCN1CC(=O)N[C@@H](Cc2ccc(O)cc2)C(=O)N[C@@H](CC(C)C)C(=O)NCC(=O)N[C@@H](CCCNC(=N)N)C(=O)N(C)[C@@H](CCCC)C(=O)N[C@@H](CCCCC)C(=O)N2CCC[C@H]2C(=O)N[C@@H](C(C)C)C(=O)N[C@@H](CO)C(=O)N[C@H](C(=O)NCC(N)=O)CSCC(=O)N[C@@H](Cc2ccccc2)C(=O)N[C@@H](Cc2ccc(O)cc2)C(=O)N[C@@H](CC(=O)O)C1=O [Example 1081] ({CH2CO}-FYD[NHexGly]YLGR[NMeNle][Ahp(2)]PVSCG-NH2; thioether N-14) | 4.6 nM | 
7 | CCCCCCN1CC(=O)N[C@@H](Cc2ccc(O)cc2)C(=O)N[C@@H](CCCC)C(=O)N[C@@H](CC(N)=O)C(=O)N[C@@H](CCCNC(N)=O)C(=O)N(C)[C@@H](CCCC)C(=O)N[C@@H](CCCCC)C(=O)N2CCC[C@H]2C(=O)N[C@@H](C(C)C)C(=O)N[C@@H](CC(=O)O)C(=O)N[C@H](C(=O)NCC(=O)O)CSCC(=O)N[C@@H](Cc2ccccc2)C(=O)N[C@@H](Cc2ccc(O)cc2)C(=O)N[C@@H](CC(=O)O)C1=O [Example 1082] ({CH2CO}-FYD[NHexGly]Y[Nle]N[Cit][NMeNle][Ahp(2)]PVDCG-OH; thioether N-14) | 8.1 nM | 
8 | CCCCCCN1CC(=O)N[C@@H](Cc2ccc(O)cc2)C(=O)N[C@@H](CCCC)C(=O)N[C@@H](CC(N)=O)C(=O)N[C@@H](CCCNC(=N)N)C(=O)N(C)[C@@H](CCCC)C(=O)N[C@@H](CCCCC)C(=O)N2CCC[C@H]2C(=O)N[C@@H](C(C)C)C(=O)N[C@@H](CC(=O)O)C(=O)N[C@H](C(=O)NCC(=O)O)CSCC(=O)N[C@@H](Cc2ccccc2)C(=O)N[C@@H](Cc2ccc(O)cc2)C(=O)N[C@@H](CC(=O)O)C1=O [Example 1083] ({CH2CO}-FYD[NHexGly]Y[Nle]NR[NMeNle][Ahp(2)]PVDCG-OH; thioether N-14) | 39.1 nM | 
9 | CCCCC[C@@H]1NC(=O)[C@H](CCCC)N(C)C(=O)[C@H](CCCN)NC(=O)[C@H](CC(N)=O)NC(=O)[C@H](CC(C)C)NC(=O)[C@H](Cc2ccc(O)cc2)NC(=O)CN(CCCc2ccccc2)C(=O)[C@H](CC(=O)O)NC(=O)[C@H](Cc2ccc(O)cc2)NC(=O)[C@H](Cc2ccccc2)NC(=O)CSC[C@@H](C(=O)NCC(N)=O)NC(=O)[C@H](CO)NC(=O)[C@H](C(C)(C)C)NC(=O)[C@@H]2CCCN2C1=O [Example 1084] ({CH2CO}-FYD[N(3-phenylpropyl)Gly]YLN[Orn][NMeNle][Ahp(2)]P[Tle]SCG-NH2; thioether N-14) |  | 37.8 nM
10 | CCCCC[C@@H]1NC(=O)[C@H](CCCC)N(C)C(=O)[C@H](CCCN)NC(=O)[C@H](CC(N)=O)NC(=O)[C@H](CC(C)C)NC(=O)[C@H](Cc2ccc(O)cc2)NC(=O)CN(CCCc2ccccc2)C(=O)[C@H](CC(=O)O)NC(=O)[C@H](Cc2ccc(O)cc2)NC(=O)[C@H](Cc2ccccc2)NC(=O)CSC[C@@H](C(=O)NCC(N)=O)NC(=O)[C@H](CO)NC(=O)[C@H](C(C)C)NC(=O)[C@@H]2CCCN2C1=O [Example 1085] ({CH2CO}-FYD[N(3-phenylpropyl)Gly]YLN[Orn][NMeNle][Ahp(2)]PVSCG-NH2; thioether N-14) |  | 31.8 nM
11 | CCCCC[C@@H]1NC(=O)[C@H](CCCC)N(C)C(=O)[C@H](CCCNC(=N)N)NC(=O)[C@H](CC(N)=O)NC(=O)[C@H](CC(C)C)NC(=O)[C@H](Cc2ccc(O)cc2)NC(=O)CN(CCCc2ccccc2)C(=O)[C@H](CC(=O)O)NC(=O)[C@H](Cc2ccc(O)cc2)NC(=O)[C@H](Cc2ccccc2)NC(=O)CSC[C@@H](C(=O)NCC(N)=O)NC(=O)[C@H](CO)NC(=O)[C@H](C(C)C)NC(=O)[C@@H]2CCCN2C1=O [Example 1086] ({CH2CO}-FYD[N(3-phenylpropyl)Gly]YLNR[NMeNle][Ahp(2)]PVSCG-NH2; thioether N-14) |  | 40.7 nM
12 | CCCCC[C@@H]1NC(=O)[C@H](CCCC)N(C)C(=O)[C@H](CCCNC(=N)N)NC(=O)[C@H](CC(N)=O)NC(=O)[C@H](CC(C)C)NC(=O)[C@H](Cc2ccc(O)cc2)NC(=O)CN(CCCc2ccccc2)C(=O)[C@H](CC(=O)O)NC(=O)[C@H](Cc2ccc(O)cc2)NC(=O)[C@H](Cc2ccccc2)NC(=O)CSC[C@@H](C(=O)NCC(N)=O)NC(=O)[C@H](CO)NC(=O)[C@H](C(C)(C)C)NC(=O)[C@@H]2CCCN2C1=O [Example 1087] ({CH2CO}-FYD[N(3-phenylpropyl)Gly]YLNR[NMeNle][Ahp(2)]P[Tle]SCG-NH2; thioether N-14) |  | 34.7 nM
13 | CCCCCCN1CC(=O)N[C@@H](Cc2ccc(O)cc2)C(=O)N[C@@H](CCCCC)C(=O)N[C@@H](CC(N)=O)C(=O)N[C@@H](CCCNC(=N)N)C(=O)N[C@@H](C)C(=O)N[C@@H](CCCCC)C(=O)N2CCC[C@H]2C(=O)N[C@@H](C(C)C)C(=O)N[C@@H](CO)C(=O)N[C@H](C(=O)NCC(N)=O)CSCC(=O)N[C@@H](Cc2ccccc2)C(=O)N[C@@H](Cc2ccc(O)cc2)C(=O)N[C@@H](CC(=O)O)C1=O [Example 1089] ({CH2CO}-FYD[NHexGly]Y[Ahp(2)]NRA[Ahp(2)]PVSCG-NH2; thioether N-14) |  | 37.9 nM
14 | CCCCCCN1CC(=O)N[C@@H](Cc2ccc(O)cc2)C(=O)N[C@@H](CCCCC)C(=O)N[C@@H](CC(N)=O)C(=O)N[C@@H](CCCNC(=N)N)C(=O)N[C@@H](C)C(=O)N[C@@H](CCCCC)C(=O)N2CCC[C@H]2C(=O)N[C@@H](C(C)C)C(=O)N[C@@H](CO)C(=O)N[C@H](C(=O)NCC(=O)O)CSCC(=O)N[C@@H](Cc2ccccc2)C(=O)N[C@@H](Cc2ccc(O)cc2)C(=O)N[C@@H](CC(=O)O)C1=O [Example 1090] ({CH2CO}-FYD[NHexGly]Y[Ahp(2)]NRA[Ahp(2)]PVSCG-OH; thioether N-14) |  | 8 nM
15 | CCCCCCN1CC(=O)N[C@@H](Cc2ccc(O)cc2)C(=O)N[C@@H](CC(C)C)C(=O)NCC(=O)N[C@@H](CCCNC(=N)N)C(=O)N[C@@H](CCCCN)C(=O)N[C@@H](CCCCC)C(=O)N2CCC[C@H]2C(=O)N[C@@H](C(C)C)C(=O)N[C@@H](CO)C(=O)N[C@H](C(=O)NCC(=O)O)CSCC(=O)N[C@@H](Cc2ccccc2)C(=O)N[C@@H](Cc2ccc(O)cc2)C(=O)N[C@@H](CC(=O)O)C1=O [Example 1091] ({CH2CO}-FYD[NHexGly]YLGRK[Ahp(2)]PVSCG-OH; thioether N-14) |  | 5.3 nM
